Measured values reported in patent US8980951B2, “Sesquiterpenes for antifungal applications” (Kansas State University Research Foundation, priority 2011, dated 2015).

Tested on: A. nidulans, C. albicans, C. albicans 95-158 Flu-R, Cryp. neomormans, Candida krusei, and C. glabrata
Assay: Fungicidal test, viability of treated fungal cells spotted on YPD agar
Assay type: cell-based
Settings: after 72 h exposure

Row | SMILES | resistance in treated fungi
1 | C=C1CC[C@H]2C(C)(C)CCC[C@]2(C)[C@H]1CO [Albicanol, (+)-albicanol] | not observed
2 | CC1=CC[C@H]2C(C)(C)CCC[C@]2(C)[C@H]1CO [drimenol, (−)-drimenol] | not observed
